System: NCI-H211 complex spheroid viability
Experiment: Anticancer human tumor NCI-H211 cell line growth inhibition [LSD1];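 also: luminescent viability read after seven days of drug exposure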;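 as to viability, T/C: 100% = DMSO vehicle control viability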
Conditions: for IC50: curve of first compound; for viability, T/C: stronger effect = lower value
Outline: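 Multicellular complex spheroids of tumor cells with human endothelial cells (HUVEC) and mesenchymal stem cells; the LSD1 inhibitor iadademstat was combined with standard-of-care or investigational agents. Top concentration at or near clinical Cmax, half-log dilutions; final DMSO ≤0.25%.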

[1] = second compound 0.1 µM, first compound 0.00949 µM
[2] = second compound 0.1 µM, first compound 0.03 µM
[3] = second compound 0.1 µM, first compound 0.0949 µM
[4] = second compound 0.1 µM, first compound 0.3 µM
[5] = second compound 0.1 µM, first compound 0.949 µM
[6] = second compound 0.1 µM, first compound 3 µM
[7] = second compound 0.316 µM, first compound 0.00949 µM
[8] = second compound 0.316 µM, first compound 0.03 µM
[9] = second compound 0.316 µM, first compound 0.0949 µM
[10] = second compound 0.316 µM, first compound 0.3 µM
[11] = second compound 0.316 µM, first compound 0.949 µM
[12] = second compound 0.316 µM, first compound 3 µM
[13] = second compound 1 µM, first compound 0.00949 µM
[14] = second compound 1 µM, first compound 0.03 µM
[15] = second compound 1 µM, first compound 0.0949 µM
[16] = second compound 1 µM, first compound 0.3 µM
[17] = second compound 1 µM, first compound 0.949 µM
[18] = second compound 1 µM, first compound 3 µM
[19] = second compound 3.16 µM, first compound 0.00949 µM
[20] = second compound 3.16 µM, first compound 0.03 µM
[21] = second compound 3.16 µM, first compound 0.0949 µM
[22] = second compound 3.16 µM, first compound 0.3 µM
[23] = second compound 3.16 µM, first compound 0.949 µM
[24] = second compound 3.16 µM, first compound 3 µM
[25] = second compound 10 µM, first compound 0.00949 µM
[26] = second compound 10 µM, first compound 0.03 µM
[27] = second compound 10 µM, first compound 0.0949 µM
[28] = second compound 10 µM, first compound 0.3 µM
[29] = second compound 10 µM, first compound 0.949 µM
[30] = second compound 10 µM, first compound 3 µM

Compound	IC50 (second compound 0.1 µM) [nM]	IC50 (second compound 0.316 µM) [nM]	IC50 (second compound 1 µM) [nM]	IC50 (second compound 3.16 µM) [nM]	IC50 (second compound 10 µM) [nM]	viability, T/C [1] [%]	viability, T/C [2] [%]	viability, T/C [3] [%]	viability, T/C [4] [%]	viability, T/C [5] [%]	viability, T/C [6] [%]	viability, T/C [7] [%]	viability, T/C [8] [%]	viability, T/C [9] [%]	viability, T/C [10] [%]	viability, T/C [11] [%]	viability, T/C [12] [%]	viability, T/C [13] [%]	viability, T/C [14] [%]	viability, T/C [15] [%]	further results
NS(=O)(=O)OCC1CC(n2ccc3c(NC4CCc5ccccc54)ncnc32)CC1O (stereo not given) + NC1CC1c1ccc(-c2cccc(O)c2)cc1	< 9.49	< 9.49	< 9.49	< 9.49	< 9.49	21.2	9.36	4.3	1.71	1.1	0.94	20.3	13.6	2.93	1.2	1.09	0.81	20.4	10.4	3.57	viability, T/C [16]: 1.64%; viability, T/C [17]: 1.11%; viability, T/C [18]: 0.79%; viability, T/C [19]: 26.8%; viability, T/C [20]: 13.2%; viability, T/C [21]: 5.17%; viability, T/C [22]: 2.04%; viability, T/C [23]: 0.97%; viability, T/C [24]: 0.81%; viability, T/C [25]: 27.4%; viability, T/C [26]: 12%; viability, T/C [27]: 5.24%; viability, T/C [28]: 1.75%; viability, T/C [29]: 0.61%; viability, T/C [30]: 0.57%
Nc1ccccc1NC(=O)c1ccc(CNC(=O)OCc2cccnc2)cc1 + NC1CC1c1ccc(-c2cccc(O)c2)cc1	12.2	< 9.49	< 9.49	< 9.49	12	56.5	26.4	4.02	1.9	1.18	0.14	46.8	18.2	4.2	2.36	1.27	0.1	45.8	25.1	3.68	viability, T/C [16]: 2.02%; viability, T/C [17]: 1.28%; viability, T/C [18]: 0.1%; viability, T/C [19]: 43.4%; viability, T/C [20]: 24.5%; viability, T/C [21]: 4.34%; viability, T/C [22]: 3.1%; viability, T/C [23]: 1.14%; viability, T/C [24]: 0.14%; viability, T/C [25]: 53.6%; viability, T/C [26]: 36.1%; viability, T/C [27]: 5.02%; viability, T/C [28]: 2.76%; viability, T/C [29]: 0.95%; viability, T/C [30]: 0.16%
O=C(C=Cc1cccc(S(=O)(=O)Nc2ccccc2)c1)NO + NC1CC1c1ccc(-c2cccc(O)c2)cc1	< 9.49	< 9.49	< 9.49	< 9.49	< 9.49	14.7	8.14	7.87	3.8	0.63	0.14	13.9	7.23	7.38	4.67	0.66	0.16	13.9	8.11	9.23	viability, T/C [16]: 4.38%; viability, T/C [17]: 0.39%; viability, T/C [18]: 0.17%; viability, T/C [19]: 15.4%; viability, T/C [20]: 7.28%; viability, T/C [21]: 7.21%; viability, T/C [22]: 4.21%; viability, T/C [23]: 0.29%; viability, T/C [24]: 0.16%; viability, T/C [25]: 13.5%; viability, T/C [26]: 6.43%; viability, T/C [27]: 7.11%; viability, T/C [28]: 3.82%; viability, T/C [29]: 0.24%; viability, T/C [30]: 0.27%

From PubChem BioAssay AID1918940 (Molecular Pharmacology Branch, DTP, NCI, 2023)
